Measured values taken from article PMC3625590, “NBM-T-L-BMX-OS01, Semisynthesized from Osthole, Is a Novel Inhibitor of Histone Deacetylase and Enhances Learning and Memory in Rats” (Evidence-based Complementary and Alternative Medicine : eCAM, 2013).

Assays:
[1] = tested on: primary hippocampal neurons; experiment: Neurite outgrowth by immunocytochemistry; format: cell-based, Sprague-Dawley rats
Protocol: (§1) The primary hippocampal culture was prepared as described previously. To culture embryonic hippocampal primary neurons, pregnant Sprague-Dawley rats were purchased from the National Laboratory Center in Taiwan. The hippocampal tissue from the embryos of the Sprague-Dawley rats (E19) was dissociated with 100 U/mL of papain (Sigma-Aldrich) and plated onto poly-L-lysine-coated coverslips at a density of 1 × 10^4 cells/cm^2 with a minimal essential medium containing 5% calf serum, 5% horse serum, and 50 ng/mL insulin-transferrin-selenite (Sigma-Aldrich). Three hours after plating, the medium was replaced with 2% of a B27-neurobasal medium (Invitrogen, Carlsbad, CA, USA) containing 0.5 mM glutamine and 12.5 μM glutamate.
(§2) Supplemental Materials and Methods
(§3) 2.1. HEK293T cells. HEK293T cells were maintained in Dulbecco’s modified Eagle’s medium (Invitrogen) supplemented with 10% fetal calf serum (Invitrogen). Cultures were maintained in a humidified 5% CO2-95% air atmosphere at 37°C.
2.2. Immunocytochemistry. Cultured hippocampal neurons were fixed with 4% paraformaldehyde for 15 min and permeablized with 0.1% Triton X-100 for 20 min at room temperature (RT). The primary Mouse anti-β III tubulin and anti-actin (Millipore) Abs were added for 1 h at RT. […]
(§4) The lysate was resolved by 8% SDS-PAGE. […] The protein bands were quantified using the NIH Image J Software. […]

CREB = CREB phosphorylation at Ser133 in hippocampal cultured neurons; format: cell-based, Sprague-Dawley rats
Protocol: as §1
The hippocampus tissue and primary hippocampal cells were lysed and sonicated in an RIPA buffer (50 mM Tris-HCl (pH 7.4), 150 mM NaCl, 2 mM EDTA, 1% IGEPAL CA-630, 1 mM phenylmethylsulfonyl fluoride (PMSF), 20 μg/mL pepstatin A, 20 μg/mL leupeptin, 20 μg/mL aprotinin, 50 mM NaF, and 1 mM Na3VO4). The protocol was performed as described previously. The lysate was resolved by 8% SDS-PAGE. […] The protein bands were quantified using the NIH Image J Software.

HEK293T cells = experiment: CRE promoter-luciferase assay; format: cell-based
Protocol: as §2, §3
2.2. Immunocytochemistry. Cultured hippocampal neurons were fixed with 4% paraformaldehyde for 15 min and permeablized with 0.1% Triton X-100 for 20 min at room temperature (RT). The primary Mouse anti-β III tubulin and anti-actin (Millipore) Abs were added for 1 h at RT. After wash, Alexa Fluor 488 […] Ab (Molecular Probes, Europe BV, Leiden, Netherlands) were incubated with cells for 1 h at RT. Coverslips were mounted, and images were obtained by using a Axio Observer D1 microscope (Zeiss, Jena, Germany). Neuronal process longer than […] is defined as neurites.
2.3. Western blot. […]
as §4
FBS. […] The activity of firefly luciferase was measured as firefly luciferase luminescence after reaction with luciferase reagent for 15 min. Next, the activity of Renilla luciferase is measured as Renilla luciferase luminescence after reaction with Stop & Glo reagent for 15 min.
The ratio of firefly luciferase activity to Renilla luciferase activity was calculated and normalized to vector control.

Sco-induced amnesia rats = experiment: Passive one-way avoidance, Sco-induced memory impairment; format: in vivo, Sprague-Dawley rats; details: Sco 1.5 mg/kg/d; BMX or SAHA 5 mg/kg/d i.p.; 1 day and 7 days after footshock
Protocol: The BMX and SAHA stock (100 mg/mL) was dissolved in DMSO and diluted with saline to a final concentration of 0.5 mg/mL (in 0.5% DMSO/saline). Sco was dissolved in saline to a final concentration of 0.15 mg/mL based on previous studies [35, 36]. SD rats were randomly divided into 3 groups. For the naïve animal experiments, the BMX-injected or SAHA-injected groups were injected with BMX (5 mg/kg/d) or SAHA (5 mg/kg/d) intraperitoneally 7 d prior to behavioral experiments and during the experimentation. The control group received the 0.5% DMSO/saline injection. The injection volume was 10 μL/g of body weight. The injections were performed once per day. For the amnesia experiment, the protocol was adopted from previous studies [35, 36] with modifications. The Sco-injected (SAHA + Sco) or (BMX + Sco)-injected groups were injected with Sco (1.5 mg/kg/d), SAHA (5 mg/kg/d) or BMX (5 mg/kg/d), intraperitoneally 7 d prior to behavioral experiments and during the experimentation. The control group received the 0.5% DMSO/saline injection. The injection volume was 10 μL/g of body weight. […]
The apparatus consisted of a trough-shaped alley divided by a sliding door that separates an illuminated safety compartment and a dark compartment. […] The behavioral task, including the training and testing procedures, was recorded between 8:00 AM and 6:00 PM. […]

HDAC8 = target: T1, HDAC8 (Homo sapiens, UniProt Q9BY41); details: cited from earlier work
T1 sequence (Q9BY41 1-377): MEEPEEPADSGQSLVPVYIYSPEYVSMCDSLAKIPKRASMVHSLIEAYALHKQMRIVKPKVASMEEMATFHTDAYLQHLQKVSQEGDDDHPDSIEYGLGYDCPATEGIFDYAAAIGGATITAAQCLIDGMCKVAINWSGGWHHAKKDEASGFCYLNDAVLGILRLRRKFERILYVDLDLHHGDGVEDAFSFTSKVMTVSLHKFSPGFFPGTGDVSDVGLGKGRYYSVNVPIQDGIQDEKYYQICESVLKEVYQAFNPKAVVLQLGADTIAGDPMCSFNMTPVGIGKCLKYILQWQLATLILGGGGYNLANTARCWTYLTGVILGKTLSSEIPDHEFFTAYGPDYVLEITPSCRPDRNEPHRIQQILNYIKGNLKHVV

For `O=C(CCCCCCC(=O)Nc1ccccc1)NO` [SAHA, suberoylanilide hydroxamic acid, reference compound], the “neurite branch and neurite length” value [1] was “increased the neurite length in particular”, the “CREB phosphorylation at Ser133” value (CREB) was “increased CREB phosphorylation at Ser133” and the CRE-mediated promoter activity (HEK293T cells) was “increased”. For the same compound, the “retention time in the illuminated chamber” value (Sco-induced amnesia rats) was “showed less retention time in the illuminated chamber” and the “inhibition of HDAC8 deacetylase activity” value (HDAC8) was “little inhibition of HDAC8”.
